Source: patent publication US12649751B2 (Arcus Biosciences, Inc., priority 2022, dated 2026)
Where two headings read alike, the source gives them in different places.

Experiments:
HPK1 = HPK1 (Homo sapiens, UniProt Q92918); experiment: HPK1 Biochemical Assay (ADP-Glo luminescence; low ATP 10 μM or high ATP 200 μM); settings: HPK1 ADP-Glo assay
[1] = system: p-SLP-76 (Ser376) in Jurkat cells; experiment: pSLP76 Cellular Assay (AlphaLISA SureFire Ultra p-SLP-76 (Ser376), anti-CD3 activated Jurkat cells); format: cell-based; settings: Homo sapiens; pSLP76 (Ser376) AlphaLISA, anti-CD3 activated Jurkat cells; read-out: Cellular Potency
In short: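 Jurkat cells, serum-starved overnight in Opti-MEM then in HBSS, preincubated 1 h at 37 °C with 22-point 2-fold compound dilutions, then stimulated with anti-CD3 (0.025 mg/ml added solution) for 45 min. Lysate p-SLP-76 (Ser376) measured by AlphaLISA at 570 nm; IC50 from 4-parameter logistic fit.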

[2] = high ATP (200 μM ATP, 5 nM HPK1), read-out: Biochemical Potency (high ATP)

Sequence of HPK1 (Q92918 whole entry, species assumed): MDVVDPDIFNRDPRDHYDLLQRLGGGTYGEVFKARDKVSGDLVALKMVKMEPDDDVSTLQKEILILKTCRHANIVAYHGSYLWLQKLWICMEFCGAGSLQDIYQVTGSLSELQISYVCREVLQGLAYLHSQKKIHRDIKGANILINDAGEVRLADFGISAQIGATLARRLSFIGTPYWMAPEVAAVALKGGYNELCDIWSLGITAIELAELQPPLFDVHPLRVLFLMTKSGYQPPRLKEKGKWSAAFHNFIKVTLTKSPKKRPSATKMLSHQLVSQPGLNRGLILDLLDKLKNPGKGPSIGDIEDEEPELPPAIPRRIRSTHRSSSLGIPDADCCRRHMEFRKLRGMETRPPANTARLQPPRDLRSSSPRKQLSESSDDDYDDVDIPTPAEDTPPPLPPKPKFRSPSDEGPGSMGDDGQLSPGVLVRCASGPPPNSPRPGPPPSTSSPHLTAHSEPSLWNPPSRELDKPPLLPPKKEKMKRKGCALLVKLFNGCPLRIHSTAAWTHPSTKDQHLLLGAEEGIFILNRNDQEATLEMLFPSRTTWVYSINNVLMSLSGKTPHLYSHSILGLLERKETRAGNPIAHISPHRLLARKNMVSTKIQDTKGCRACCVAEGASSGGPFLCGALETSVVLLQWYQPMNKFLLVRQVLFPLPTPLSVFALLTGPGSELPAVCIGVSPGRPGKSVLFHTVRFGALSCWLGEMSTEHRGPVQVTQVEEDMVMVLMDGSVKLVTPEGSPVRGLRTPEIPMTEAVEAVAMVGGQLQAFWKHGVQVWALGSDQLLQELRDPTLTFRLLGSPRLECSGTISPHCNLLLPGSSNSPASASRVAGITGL

Row | SMILES | IC50 (HPK1; [2]) | IC50 [1] | IC50 (HPK1; low ATP (10 μM ATP, 2 nM HPK1), read-out: Biochemical Potency (low ATP))
1 | CC(=O)N1CCC(N2C[C@@H]3C[C@H]2CN3c2nc(C)cc(Nc3cc4nc(-c5cccc(C(=O)N(C)C)c5)sc4cn3)n2)CC1 [Example 332] | < 100 nM | 1000 to 5000 nM | –
2 | CN1C[C@@H]2C[C@H]1CN2c1cc(Cl)cc(Nc2cc3nc(-c4ccnc(C(C)(C)O)c4)sc3cn2)n1 [Example 333] | < 100 nM | 100 to 1000 nM | –
3 | Cc1cccnc1-c1nc2cc(Nc3cc(F)cc(N4C[C@@H]5C[C@H]4CN5)n3)ncc2s1 [Example 334] | – | < 100 nM | < 100 nM
4 | CCN1C[C@@H]2C[C@H]1CN2c1nc(C)cc(Nc2cc3nc(-c4cnn(Cc5ccccc5)c4)sc3cn2)n1 [Example 336] | < 100 nM | 100 to 1000 nM | –
5 | CCN1C[C@@H]2C[C@H]1CN2c1nc(Nc2cc3nc(-c4ccnc(C(C)(C)O)c4)sc3cn2)cc(C)c1F [Example 337] | < 100 nM | 100 to 1000 nM | –
6 | CCN1C[C@@H]2C[C@H]1CN2c1nc(C)cc(Nc2cc3nc(-c4cccc(N5CCC(F)CC5)c4)sc3cn2)n1 [Example 338] | < 100 nM | 1000 to 5000 nM | –
7 | CCN1C[C@@H]2C[C@H]1CN2c1nc(C)cc(Nc2cc3nc(-c4cccc(S(=O)(=O)CC(C)C)c4)sc3cn2)n1 [Example 339] | < 100 nM | 100 to 1000 nM | –
8 | CCN1C[C@@H]2C[C@H]1CN2c1nc(C)cc(Nc2cc3nc(-c4cccc(S(=O)(=O)C5CC5)c4)sc3cn2)n1 [Example 340] | < 100 nM | < 100 nM | –
9 | CCN1C[C@@H]2C[C@H]1CN2c1nc(C)cc(Nc2cc3nc(-c4cccc(S(=O)(=O)N5CCCC5)c4)sc3cn2)n1 [Example 341] | < 100 nM | 100 to 1000 nM | –
10 | CCN(CC)C(=O)c1cccc(-c2nc3cc(Nc4cc(C)nc(N5C[C@@H]6C[C@H]5CN6CC)n4)ncc3s2)c1 [Example 342] | < 100 nM | 100 to 1000 nM | –
11 | CCN(CC)S(=O)(=O)c1cc(C)cc(-c2nc3cc(Nc4cc(C)nc(N5C[C@@H]6C[C@H]5CN6CCO)n4)ncc3s2)c1 [Example 343] | < 100 nM | 1000 to 5000 nM | –
12 | Cc1cc(Nc2cc3nc(-c4cccc(S(=O)(=O)N5CCCC5)c4)sc3cn2)nc(N2C[C@@H]3C[C@H]2CN3CCO)n1 [Example 344] | < 100 nM | < 100 nM | –
13 | Cc1cc(-c2nc3cc(Nc4cc(C)nc(N5C[C@@H]6C[C@H]5CN6CCO)n4)ncc3s2)cc(N2CCCC2=O)c1 [Example 345] | < 100 nM | < 100 nM | –
14 | Cc1cc(C(=O)N(C)C)cc(-c2nc3cc(Nc4cc(C)cc(N5C[C@@H]6C[C@H]5CN6CCO)n4)ncc3s2)c1 [Example 347] | < 100 nM | < 100 nM | –
15 | Cc1cc(Nc2cc3nc(-c4cnn(CC5CC5)c4)sc3cn2)nc(N2C[C@@H]3C[C@H]2CN3CCO)c1 [Example 348] | < 100 nM | < 100 nM | –
16 | Cc1cc(Nc2cc3nc(-c4cccc(N5CCOCC5)c4)sc3cn2)nc(N2C[C@@H]3C[C@H]2CN3CCO)n1 [Example 349] | < 100 nM | 100 to 1000 nM | –
17 | Cc1cc(Nc2cc3nc(-c4cccc5c4C(C)(C)C(=O)N5)sc3cn2)nc(N2C[C@@H]3C[C@H]2CN3CCO)n1 [Example 350] | < 100 nM | < 100 nM | –
18 | COCc1c(-c2nc3cc(Nc4cc(C)nc(N5C[C@@H]6C[C@H]5CN6C)n4)ncc3s2)cnn1C [Example 351] | < 100 nM | < 100 nM | –
19 | Cc1cc(Nc2cc3nc(-c4cccc(C(=O)N5CCCCC5)c4)sc3cn2)nc(N2C[C@@H]3C[C@H]2CN3CCO)n1 [Example 352] | < 100 nM | < 100 nM | –
20 | Cc1cc(Nc2cc3nc(-c4ccnc(C(C)C)c4)sc3cn2)nc(N2C[C@@H]3C[C@H]2CN3CCO)n1 [Example 354] | < 100 nM | < 100 nM | –
21 | Cc1cc(Nc2cc3nc(-c4cnn(C(C)(C)C#N)c4)sc3cn2)nc(N2C[C@@H]3C[C@H]2CN3CCO)n1 [Example 355] | < 100 nM | 100 to 1000 nM | –
22 | Cc1cc(Nc2cc3nc(-c4cnn(CC5CC5)c4)sc3cn2)nc(N2C[C@@H]3C[C@H]2CN3CC(=O)N(C)C)n1 [Example 356] | 100 to 1000 nM | 1000 to 5000 nM | –
23 | OCCN1C[C@@H]2C[C@H]1CN2c1nccc(Nc2cc3nc(-c4cnn(CC5CC5)c4)sc3cn2)n1 [Example 357] | < 100 nM | 100 to 1000 nM | –
24 | CCn1cc(-c2nc3cc(Nc4cc(C)nc(N5C[C@@H]6C[C@H]5CN6CCO)n4)ncc3s2)cn1 [Example 358] | < 100 nM | < 100 nM | –
25 | Cc1cc(Nc2cc3nc(-c4ncc(C)o4)sc3cn2)nc(N2C[C@@H]3C[C@H]2CN3CCO)n1 [Example 359] | < 100 nM | < 100 nM | –
26 | Cc1cc(Nc2cc3nc(-c4cccn5nccc45)sc3cn2)nc(N2C[C@@H]3C[C@H]2CN3CCO)n1 [Example 360] | < 100 nM | 1000 to 5000 nM | –

Row | SMILES | IC50 (HPK1; [2]) | IC50 [1] | IC50 (HPK1; low ATP (10 μM ATP, 2 nM HPK1), read-out: Biochemical Potency (low ATP))
27 | Cc1cc(Nc2cc3nc(-c4cncc(C5CC5)c4)sc3cn2)nc(N2C[C@@H]3C[C@H]2CN3CCO)n1 [Example 361] | < 100 nM | 100 to 1000 nM | –
28 | Cc1cc(Nc2cc3nc(-c4cccc(C#Cc5cnn(C)c5)c4)sc3cn2)nc(N2C[C@@H]3C[C@H]2CN3CCO)n1 [Example 362] | < 100 nM | 1000 to 5000 nM | –
29 | Cc1cc(Nc2cc3nc(-c4cnn(CC5CCCCO5)c4)sc3cn2)nc(N2C[C@@H]3C[C@H]2CN3C)n1 (stereo partly drawn) [Example 363] | < 100 nM | 100 to 1000 nM | –
30 | Cc1cc(Nc2cc3nc(-c4cnn(C5CC5)c4)sc3cn2)nc(N2C[C@@H]3C[C@H]2CN3CC2CC2)n1 [Example 364] | < 100 nM | < 100 nM | –
31 | Cc1cc(Nc2cc3nc(-c4cccc(-c5ccn(C)n5)c4)sc3cn2)nc(N2C[C@@H]3C[C@H]2CN3C)n1 [Example 365] | < 100 nM | 5000 to 25000 nM | –
32 | Cc1cc(Nc2cc3nc(-c4cnn(C)c4C#N)sc3cn2)nc(N2C[C@@H]3C[C@H]2CN3C)n1 [Example 366] | < 100 nM | 100 to 1000 nM | –
33 | Cc1cc(Nc2cc3nc(-c4cccc(S(=O)(=O)N5CCCCC5)c4)sc3cn2)nc(N2C[C@@H]3C[C@H]2CN3C)n1 [Example 367] | < 100 nM | 1000 to 5000 nM | –
34 | Cc1cc(Nc2cc3nc(-c4cnn(C)c4-c4ccccc4)sc3cn2)nc(N2C[C@@H]3C[C@H]2CN3C)n1 [Example 368] | < 100 nM | 100 to 1000 nM | –
35 | Cc1cc(Nc2cc3nc(-c4cnn(CS(C)(=O)=O)c4)sc3cn2)nc(N2C[C@@H]3C[C@H]2CN3CCO)n1 [Example 369] | < 100 nM | 100 to 1000 nM | –
36 | Cc1cc(Nc2cc3nc(-c4cnn(CC5CC5)c4)sc3cn2)nc(N2C[C@@H]3C[C@H]2CN3CCO)n1 [Example 370] | < 100 nM | < 100 nM | –
37 | Cc1cc(Nc2cc3nc(-c4cnn(C(C)(C)C#N)c4)sc3cn2)nc(N2C[C@@H]3C[C@H]2CN3C)n1 [Example 371] | < 100 nM | 100 to 1000 nM | –
38 | Cc1cc(Nc2cc3nc(-c4cnn(C)c4C(=O)N(C)C)sc3cn2)nc(N2C[C@@H]3C[C@H]2CN3C)n1 [Example 372] | < 100 nM | 100 to 1000 nM | –
39 | Cc1cc(Nc2cc3nc(-c4ncc(C)o4)sc3cn2)nc(N2C[C@@H]3C[C@H]2CN3C)n1 [Example 373] | < 100 nM | 100 to 1000 nM | –
40 | Cc1cc(Nc2cc3nc(-c4ccc5c(c4)S(=O)(=O)N(C)C5)sc3cn2)nc(N2C[C@@H]3C[C@H]2CN3C)n1 [Example 374] | 100 to 1000 nM | 5000 to 25000 nM | –
41 | Cc1cc(Nc2cc3nc(-c4cnn(CC(F)F)c4)sc3cn2)nc(N2C[C@@H]3C[C@H]2CN3C)n1 [Example 375] | < 100 nM | 100 to 1000 nM | –
42 | COCCn1cc(-c2nc3cc(Nc4cc(C)nc(N5C[C@@H]6C[C@H]5CN6C)n4)ncc3s2)cn1 [Example 376] | < 100 nM | 100 to 1000 nM | –
43 | Cc1cc(Nc2cc3nc(-c4ccn5nccc5c4)sc3cn2)nc(N2C[C@@H]3C[C@H]2CN3C)n1 [Example 377] | < 100 nM | 5000 to 25000 nM | –
44 | Cc1cc(Nc2cc3nc(-c4cnn(CS(C)(=O)=O)c4)sc3cn2)nc(N2C[C@@H]3C[C@H]2CN3C)n1 [Example 378] | < 100 nM | 100 to 1000 nM | –
45 | Cc1cc(Nc2cc3nc(-c4cnn5c4CCCC5)sc3cn2)nc(N2C[C@@H]3C[C@H]2CN3C)n1 [Example 379] | < 100 nM | 1000 to 5000 nM | –
46 | Cc1cc(Nc2cc3nc(-c4cnn(CC5CC5(F)F)c4)sc3cn2)nc(N2C[C@@H]3C[C@H]2CN3C)n1 (stereo partly drawn) [Example 380] | < 100 nM | 1000 to 5000 nM | –
47 | Cc1cc(Nc2cc3nc(-c4cnn(CCO)c4)sc3cn2)nc(N2C[C@@H]3C[C@H]2CN3C)n1 [Example 381] | < 100 nM | 100 to 1000 nM | –
48 | Cc1cc(Nc2cc3nc(-c4cccc(C(=O)N(C)C)c4)sc3cn2)nc(N2C[C@@H]3C[C@H]2CN3CC2CC2)n1 [Example 382] | < 100 nM | 100 to 1000 nM | –
49 | CCN1C[C@@H]2C[C@H]1CN2c1nc(C)cc(Nc2cc3nc(-c4cnn(CC5CC5)c4)sc3cn2)n1 [Example 383] | < 100 nM | < 100 nM | –
50 | Cc1cc(Nc2cc3nc(-c4cncc(C(F)F)c4)sc3cn2)nc(N2C[C@@H]3C[C@H]2CN3C)n1 [Example 384] | < 100 nM | 100 to 1000 nM | –
51 | Cc1cc(Nc2cc3nc(-c4cnn5c4COCC5)sc3cn2)nc(N2C[C@@H]3C[C@H]2CN3C)n1 [Example 385] | < 100 nM | 100 to 1000 nM | –
